Experimental data published in patent publication US10676437B2, “Fluorinated 4-(substituted amino)phenyl carbamate derivatives” (SciFluor Life Sciences, Inc., priority 2017, dated 2020).

Experiments:
Type in all cases: cell-based
KCNQ4 = KCNQ4 (Homo sapiens, UniProt P56696); assay: Automated patch clamp, activation of KCNQ4 channels; details: for Selectivity KCNQ4 EC50 / KCNQ2/3 EC50: ratio of EC50 values
Description: (§1) Electrophysiological studies of the compounds were performed using the Nanion SyncroPatch automated patch clamp platform.
(§2) Kv7 channels were evaluated using a voltage protocol in which cells were voltage-clamped at a holding potential of −110 mV. Potassium currents were activated with a series of voltage steps from −110 mV to +50 mV in 10 mV intervals with 5.5 seconds between successive voltage steps. Each voltage step was 3 seconds in duration and immediately followed by a 1 second voltage step to −120 mV to generate an inward “tail” current to allow construction of activation (G-V) curves by plotting normalized peak tail current versus the potential of the activating voltage step. To obtain normalized values, peak current amplitudes for successive depolarizing pulses were normalized against the maximum tail current amplitude generated at +50 mV (Tatulian et al., Journal of Neuroscience 2001, 21 (15)).
(§3) Data was collected on the Syncropatch platform using PatchControl software (Nanion) and processed and analyzed using DataControl Software (Nanion). Normalized percent activation was calculated and activation curves were fit with a Boltzmann function to determine the midpoint voltage of activation (G-V midpoint) for both pre-compound and post-compound conditions for each of the 384-wells of a sealchip with Pipeline Pilot (Accelrys). The difference in G-V midpoint between pre-compound and post-compound conditions (Δ V0.5) was plotted as a function of concentration and concentration-response curves were fit with a three-parameter logistic equation {Y=Bottom+(Top−Bottom)/(1+10^(Log EC50−X))} for determination of the EC50 (Graphpad Prism).

human Kv7.2/7.3 channels = molecular target: T1, human Kv7.2/7.3 channels (Homo sapiens, UniProt O43525+O43526); assay: Syncropatch automated patch clamp, activation of recombinantly expressed human Kv7.2/7.3 (KCNQ2/3) channels in CHO cells; details: shift in G-V midpoint (Δ V0.5) vs concentration
T1 construct: expressed in transfected cells
Description: The in vitro effects of a compound of the present application recombinantly expressed human Kv7.2/7.3 channels are assessed on Syncropatch high throughput electrophysiology platform.
CHO cells stably expressing human Kv7.2/7.3 channels were cultured in Ham's F-12 media (Hyclone, Cat # SH30022.02) supplemented with 10% Fetal Bovine Serum, 1×MEM non-essential amino acids, and 400 μg/ml G418 at 37° C. in 5% CO2. On the day of Syncropatch, the cells were washed once in DPBS (Hyclone, Cat # SH30028.03) for approximately 30 seconds. 1 ml of 1×0.015% Trypsin-EDTA GIBCO Cat #25300-054) was added and swirled around to cover the bottom of the flask, and allowed to sit on the cells for about 4 minutes (approximately 90% of the cells were lifted by light tapping of the flask). 10 ml of cold media (Ham's F-12 media (Hyclone, Cat # SH30022.02) supplemented with 10% Fetal Bovine Serum, 1×MEM non-essential amino acids, and 400 μg/ml G418) was added to inactivate Trypsin. The cells were then triturated until a single cell suspension was achieved, and the cell count was performed. The cells were then diluted to a concentration of 5×10^5/ml and placed into the “cell hotel” on the deck of the Syncropatch at 10° C. for about 1 hour to recover. 40 μL of the cell suspension was dispensed into each well of a 384-well Syncropatch chip by the onboard pipettor at the beginning of each Syncropatch assay.
The compounds to be tested were dissolved in DMSO to give 10 mM stock solutions. […]
Kv7 channels were evaluated using a voltage protocol in which cells were voltage-clamped at a holding potential of −110 mV. […]
Data was collected on the Syncropatch platform using PatchControl software (Nanion) and processed and analyzed using DataControl Software (Nanion). Normalized percent activation was calculated and activation curves were fit with a Boltzmann function to determine the midpoint voltage of activation (G-V midpoint) for both pre-compound and post-compound conditions for each of the 384-wells of a sealchip with Pipeline Pilot (Accelrys). […]

KCNQ3/5 = KCNQ3/5 (Homo sapiens, UniProt O43525+Q9NR82); assay: Automated patch clamp, activation of KCNQ3/5 channels; details: for Selectivity KCNQ3/5 EC50 / KCNQ2/3 EC50: ratio of EC50 values
Description: as §1, §2, §3

EC50 (KCNQ4) [nM] | Selectivity KCNQ4 EC50 / KCNQ2/3 EC50 (KCNQ4) | EC50 (human Kv7.2/7.3 channels) [nM] | EC50 (KCNQ3/5) [nM] | Selectivity KCNQ3/5 EC50 / KCNQ2/3 EC50 (KCNQ3/5) | SMILES
100 to 1000 | IV (IV: 10 to <50) | < 100 | < 100 | I (I: <1) | C#CCN(Cc1ccc(F)cc1)c1ccc(NC(=O)OCC)c(N)c1 [Control, reference compound]
≥ 10000 | VI (VI: ≥100) | 100 to 1000 | 1000 to 10000 | III (III: 5 to <10) | Cc1c(F)c(N2CCc3cc(F)ccc3C2)c(F)c(C)c1NC(=O)CC(C)(C)C [Compound 1, N-(3,5-difluoro-4-(6-fluoro-3,4-dihydroisoquinolin-2 (1H)-yl)-2,6-dimethylphenyl)-3,3-dimethylbutanamide]

SMILES | EC50 (KCNQ4) [nM] | Selectivity KCNQ4 EC50 / KCNQ2/3 EC50 (KCNQ4) | EC50 (human Kv7.2/7.3 channels) [nM] | EC50 (KCNQ3/5) [nM] | Selectivity KCNQ3/5 EC50 / KCNQ2/3 EC50 (KCNQ3/5)
Cc1c(F)c(NCc2ccc(F)cc2)c(F)c(C)c1NC(=O)CC(C)(C)C [Compound 2, N-(3,5-difluoro-4-((4-fluorobenzyl)amino)-2,6-dimethylphenyl)-3,3-dimethylbutanamide] | 1000 to 10000 | V (V: 50 to <100) | < 100 | 100 to 1000 | IV (IV: 10 to <50)
